Where two headings read alike, the source gives them in different places.
Experiments:
IRAK4 enzyme = IRAK4 enzyme (Homo sapiens (Human), UniProt Q9NWZ3); test: biochemical; type: biochemical; conditions: IRAK4 enzyme, 500 μM ATP
TNFα = test: cells; type: cell-based, human; conditions: LPS-stimulated human monocytes, read-out: EC50 TNF
Experimental: IRAK4 Monocyte TNFα Cell Based Assay Procedure:
The cell suspension was then plated at a density of 5,000 cells/well onto black 384 well Greiner clear bottom plates. Plates were pre-spotted with test compounds and serially diluted in DMSO where 200 nL/well were delivered using the Echo 550 acoustic liquid dispenser (Labcyte®) for a final DMSO concentration of 0.5%. Plated cells were treated with compound for 1 hour at 37° C. Cells were then stimulated with 50 pg/ml of LPS (Sigma) excluding outside columns of plate used for unstimulated cell control wells. Cells were incubated for an additional 4 hours at 37° C. Cells were then spun out of the media and 5 μl of sample were taken and analyzed for total TNFα content using the TR-FRET Human TNFα detection system (CisBio). This system utilizes two labeled antibodies (cryptate and XL665) that bind to two different epitopes of the TNFα molecule and produce FRET signal proportional to the concentration of TNFα in the sample. Detection antibodies are mixed 50:50 and 5 μL were dispensed into each well. Plates were covered with clear seals and incubated at room temp overnight. […] Percent of control was calculated as follows: % Control=100×(RatioSample−Ratio0% stimulation)/(Ratio100% Stimulation−Ratio0% Stimulation) where unstimulated cells (0% stimulation) were the negative control and stimulated cells (100% stimulation) were used as the positive control.

[1] = Homo sapiens, Monocyte, TNFα content
[2] = Homo sapiens, Monocyte, TNFα by TR-FRET

IRAK4 enzyme, sequence (Q9NWZ3 whole entry): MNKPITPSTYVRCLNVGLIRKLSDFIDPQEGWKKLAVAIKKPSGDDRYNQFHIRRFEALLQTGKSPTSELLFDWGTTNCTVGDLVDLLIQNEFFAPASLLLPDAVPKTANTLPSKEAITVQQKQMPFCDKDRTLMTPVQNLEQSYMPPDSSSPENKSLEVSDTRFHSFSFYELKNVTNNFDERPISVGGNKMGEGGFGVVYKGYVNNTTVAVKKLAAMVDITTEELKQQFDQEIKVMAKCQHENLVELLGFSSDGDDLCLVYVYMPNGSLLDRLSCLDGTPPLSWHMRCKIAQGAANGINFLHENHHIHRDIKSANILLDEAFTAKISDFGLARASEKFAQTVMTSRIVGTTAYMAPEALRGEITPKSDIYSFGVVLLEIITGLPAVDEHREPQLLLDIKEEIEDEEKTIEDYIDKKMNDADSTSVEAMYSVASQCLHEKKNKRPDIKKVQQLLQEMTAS

CNC(=O)c1cnc(-c2ccc3cc(C#N)cnn23)cc1NC12CCC(C(=O)N3CC(F)(F)C3)(CC1)CC2 [Example 483, 6-(3-cyanopyrrolo[1,2-b]pyridazin-7-yl)-4-((4-(3,3-difluoroazetidine-1-carbonyl)bicyclo[2.2.2]octan-1-yl)amino)-N-methylnicotinamide] was tested, and the IC50 (IRAK4 enzyme; TR-FRET (HTRF)) was 1 nM and the EC50 (TNFα; [1]) was 64 nM.

Work on COC(=O)NC[C@H]1CC[C@H](Nc2cc(-c3ccc4cc(C#N)cnn34)ncc2C(=O)NC[C@@H](F)C(C)(C)O)CC1 [Example 556, methyl (((1R,4r)-4-((2-(3-cyanopyrrolo[1,2-b]pyridazin-7-yl)-5-(((R)-2-fluoro-3-hydroxy-3-methylbutyl)carbamoyl)pyridin-4-yl)amino)cyclo-hexyl)methyl)carbamate] yielded an IC50 (IRAK4 enzyme; TR-FRET (HTRF)) of 1 nM and an EC50 (TNFα; [1]) of 18 nM.

CNC(=O)c1cnc(-c2ccc3cc(C#N)cnn23)cc1NC12CCC(C(=O)N3CCC3)(CC1)CC2 [Example 484, 4-((4-(azetidine-1-carbonyl)bicyclo[2.2.2]octan-1-yl)amino)-6-(3-cyanopyrrolo[1,2-b]pyridazin-7-yl)-N-methyl-nicotinamide] showed an IC50 (IRAK4 enzyme; TR-FRET (HTRF)) of 1 nM and an EC50 (TNFα; [1]) of 63 nM.

In the case of CC(C)(O)[C@H](F)CNC(=O)c1cnc(-c2ccc3cc(C#N)cnn23)cc1Nc1cncnc1 [Example 145, (R)-6-(3-cyanopyrrolo[1,2-b]pyridazin-7-yl)-N-(2-fluoro-3-hydroxy-3-methylbutyl)-4-(pyrimidin-5-ylamino)nicotinamide], the IC50 (IRAK4 enzyme; TR-FRET) is reported as < 1 nM and the EC50 (TNFα; [1]) is reported as 70 nM.

CC(C)(O)[C@H](F)CNC(=O)c1cnc(-c2ccc3cc(C#N)cnn23)cc1Nc1cnn(C2CNCC2(F)F)c1 (single isomer, unassigned) [Example 869] was tested, and the IC50 (IRAK4 enzyme; TR-FRET) was < 1 nM and the EC50 (TNFα; TNFα by TR-FRET) was 14 nM.

COCC(=O)NC[C@H]1C[C@H](Nc2cc(-c3ccc4cc(C#N)cnn34)ncc2C(=O)NC[C@@H](F)C(C)(C)O)C1 [Example 823, 6-(3-cyanopyrrolo[1,2-b]pyridazin-7-yl)-N-((R)-2-fluoro-3-hydroxy-3-methylbutyl)-4-(((1r,3R)-3-((2-methoxyacetamido)methyl)cyclobutyl)amino)nicotinamide] was tested, and the IC50 (IRAK4 enzyme; TR-FRET) was < 1 nM and the EC50 (TNFα; [2]) was 47 nM.

With CC(C)(O)[C@H](F)CNC(=O)c1cnc(-c2ccc3cc(C#N)cnn23)cc1Nc1ccc(C(=O)N2CCC2)cc1 [Example 349, (R)-4-((4-(azetidine-1-carbonyl)phenyl)amino)-6-(3-cyanopyrrolo[1,2-b]pyridazin-7-yl)-N-(2-fluoro-3-hydroxy-3-methylbutyl)nicotinamide] the IC50 (IRAK4 enzyme; TR-FRET) was 1 nM and the EC50 (TNFα; [1]) was 77 nM.

With N#Cc1cnn2c(-c3cc(NC45CCC(O)(CC4)CC5)c(C(=O)NCC4(C(F)F)COC4)cn3)ccc2c1 [Example 710, 6-(3-cyanopyrrolo[1,2-b]pyridazin-7-yl)-N-((3-(difluoromethyl)oxetan-3-yl)methyl)-4-((4-hydroxybicyclo[2.2.2]octan-1-yl)amino) nicotinamide] the IC50 (IRAK4 enzyme; TR-FRET (HTRF)) was 4 nM and the EC50 (TNFα; [1]) was 183 nM.

With CC(C)Nc1cc(-c2ccc3cc(C#N)cnn23)ncc1C(=O)NC1CCOCC1 [Example 6, 6-(3-cyanopyrrolo[1,2-b]pyridazin-7-yl)-4-(isopropylamino)-N-(tetrahydro-2H-pyran-4-yl)nicotinamide] the IC50 (IRAK4 enzyme; TR-FRET) was 5 nM and the EC50 (TNFα; [1]) was 152 nM.

With CC(C)(O)[C@H](F)CNC(=O)c1cnc(-c2ccc3cc(C#N)cnn23)cc1Nc1cnc2cc[nH]c2c1 [Example 566, (R)-4-((1H-pyrrolo[3,2-b]pyridin-6-yl)amino)-6-(3-cyanopyrrolo[1,2-b]pyridazin-7-yl)-N-(2-fluoro-3-hydroxy-3-methyl-butyl)nicotinamide] the IC50 (IRAK4 enzyme; TR-FRET (HTRF)) was < 1 nM and the EC50 (TNFα; [1]) was 27 nM.

CC1(C(=O)NC[C@H]2C[C@H](Nc3cc(-c4ccc5cc(C#N)cnn45)ncc3C(=O)NC[C@@H](F)C(C)(C)O)C2)COC1 [Example 873, 6-(3-cyanopyrrolo[1,2-b]pyridazin-7-yl)-N-((R)-2-fluoro-3-hydroxy-3-methylbutyl)-4-(((1r,3R)-3-((3-methyloxetane-3-carboxamido)methyl)cyclobutyl)amino) nicotinamide] was tested, and the IC50 (IRAK4 enzyme; TR-FRET) was < 1 nM and the EC50 (TNFα; [2]) was 102 nM.

Work on CC1(C)CC(Nc2cc(-c3ccc4cc(C#N)cnn34)ncc2C(=O)NC[C@@H](F)C(C)(C)O)CCO1 (stereo partly drawn) [Example 81, 6-(3-cyanopyrrolo[1,2-b]pyridazin-7-yl)-4-((2,2-dimethyltetrahydro-2H-pyran-4-yl)amino)-N-((R)-2-fluoro-3-hydroxy-3-methylbutyl) nicotinamide] yielded an IC50 (IRAK4 enzyme; TR-FRET) of 1 nM and an EC50 (TNFα; [1]) of 134 nM.

CC(C)(O)[C@H](F)CNC(=O)c1cnc(-c2ccc3cc(C#N)cnn23)cc1N[C@H]1C[C@H](CN2CCOC2=O)C1 [Example 714, 6-(3-cyanopyrrolo[1,2-b]pyridazin-7-yl)-N-((R)-2-fluoro-3-hydroxy-3-methylbutyl)-4-(((1r,3R)-3-((2-oxooxazolidin-3-yl)methyl)cyclobutyl)amino)nicotinamide] was tested, and the IC50 (IRAK4 enzyme; TR-FRET (HTRF)) was < 1 nM and the EC50 (TNFα; [1]) was 35 nM.

CN1CCOc2cc(Nc3cc(-c4ccc5cc(C#N)cnn45)ncc3C(=O)N[C@H]3CC[C@H](NC(=O)N4CCOCC4)CC3)ccc21 [Example 860, N-((1r,4r)-4-(6-(3-cyano-pyrrolo[1,2-b]pyridazin-7-yl)-4-((4-methyl-3,4-dihydro-2H-benzo[b][1,4]oxazin-7-yl)amino)nicotin-amido)cyclohexyl) morpholine-4-carboxamide] gave an IC50 (IRAK4 enzyme; TR-FRET) of 2 nM and an EC50 (TNFα; [2]) of 31 nM.

In the case of CC(C)(O)[C@H](F)CNC(=O)c1cnc(-c2ccc3cc(C#N)cnn23)cc1N[C@H]1C[C@H](CNC(=O)CC(F)F)C1 [Example 656, 6-(3-cyanopyrrolo[1,2-b]pyridazin-7-yl)-4-(((1r,3R)-3-((3,3-difluoropropanamido)methyl)cyclobutyl)amino)-N-((R)-2-fluoro-3-hydroxy-3-methylbutyl) nicotinamide], the IC50 (IRAK4 enzyme; TR-FRET (HTRF)) is reported as < 1 nM and the EC50 (TNFα; [1]) is reported as 40 nM.

With CC(C)(O)[C@H](F)CNC(=O)c1cnc(-c2ccc3cc(C#N)cnn23)cc1Nc1ccc(C#N)cn1 [Example 413, (R)-4-((5-cyanopyridin-2-yl)amino)-6-(3-cyano-pyrrolo[1,2-b]pyridazin-7-yl)-N-(2-fluoro-3-hydroxy-3-methylbutyl) nicotinamide] the IC50 (IRAK4 enzyme; TR-FRET (HTRF)) was < 1 nM and the EC50 (TNFα; [1]) was 98 nM.

In the case of CC1(C(=O)N[C@H]2CC[C@H](Nc3cc(-c4ccc5cc(C#N)cnn45)ncc3C(=O)NC[C@@H](F)C(C)(C)O)CC2)CC1 [Example 423, 6-(3-cyanopyrrolo[1,2-b]pyridazin-7-yl)-N-((R)-2-fluoro-3-hydroxy-3-methyl-butyl)-4-(((1r,4R)-4-(1-methylcyclopropane-1-carboxamido)cyclohexyl)amino)nicotinamide], the IC50 (IRAK4 enzyme; TR-FRET (HTRF)) is reported as 2 nM and the EC50 (TNFα; [1]) is reported as 94 nM.

With CNC(=O)NC[C@H]1C[C@H](Nc2cc(-c3ccc4cc(C#N)cnn34)ncc2C(=O)NC[C@@H](F)C(C)(C)O)C1 [Example 788, 6-(3-cyanopyrrolo[1,2-b]pyridazin-7-yl)-N-((R)-2-fluoro-3-hydroxy-3-methylbutyl)-4-(((1r,3R)-3-((3-methylureido)methyl)cyclobutyl)amino) nicotinamide] the IC50 (IRAK4 enzyme; TR-FRET (HTRF)) was < 1 nM and the EC50 (TNFα; [1]) was 90 nM.

Molecule CC(C)(O)[C@H](F)CNC(=O)c1cnc(-c2ccc3cc(C#N)cnn23)cc1NC1CC(Cc2cnco2)C1 (single isomer, unassigned) [Example 640] has an IC50 (IRAK4 enzyme; TR-FRET (HTRF)) of 1 nM and an EC50 (TNFα; TNFα content) of 117 nM.

In the case of CC(C)(O)[C@H](F)CNC(=O)c1cnc(-c2ccc3cc(C#N)cnn23)cc1N[C@@H]1CCCNC1 [Example 255, 6-(3-cyanopyrrolo[1,2-b]pyridazin-7-yl)-N-((R)-2-fluoro-3-hydroxy-3-methylbutyl)-4-(((R)-piperidin-3-yl)amino)nicotinamide], the IC50 (IRAK4 enzyme; TR-FRET) is reported as 14 nM and the EC50 (TNFα; [1]) is reported as 1270 nM.

COc1cc(Nc2cc(-c3ccc4cc(C#N)cnn34)ncc2C(=O)NC[C@@H](F)C(C)(C)O)ncn1 [Example 846, (R)-6-(3-cyanopyrrolo[1,2-b]pyridazin-7-yl)-N-(2-fluoro-3-hydroxy-3-methylbutyl)-4-((6-methoxy-pyrimidin-4-yl)amino) nicotinamide] was tested, and the IC50 (IRAK4 enzyme; TR-FRET) was 2 nM and the EC50 (TNFα; [2]) was 97 nM.

In the case of CNC(=O)c1cnc(-c2ccc3cc(C#N)cnn23)cc1N[C@H]1CC[C@H](NC(=O)OC)CC1 [Example 274, methyl ((1r,4r)-4-((2-(3-cyanopyrrolo[1,2-b]pyridazin-7-yl)-5-(methylcarbamoyl)pyridin-4-yl)amino)cyclohexyl)carbamate], the IC50 (IRAK4 enzyme; TR-FRET) is reported as 1 nM and the EC50 (TNFα; [1]) is reported as 144 nM.

For Cn1cc(CNc2cc(-c3ccc4cc(C#N)cnn34)ncc2C(=O)NC[C@@H](F)C(C)(C)O)cn1 [Example 104, (R)-6-(3-cyanopyrrolo[1,2-b]pyridazin-7-yl)-N-(2-fluoro-3-hydroxy-3-methylbutyl)-4-(((1-methyl-1H-pyrazol-4-yl)methyl)amino) nicotinamide], the IC50 (IRAK4 enzyme; TR-FRET) was 6 nM and the EC50 (TNFα; [1]) was 274 nM.

In the case of CC(C)(O)[C@H](F)CNC(=O)c1cnc(-c2ccc3cc(C#N)cnn23)cc1Nc1ccc2c(c1)OC(F)(F)O2 [Example 651, (R)-6-(3-cyanopyrrolo[1,2-b]pyridazin-7-yl)-4-((2,2-difluorobenzo[d][1,3]dioxol-5-yl)amino)-N-(2-fluoro-3-hydroxy-3-methylbutyl) nicotinamide], the IC50 (IRAK4 enzyme; TR-FRET (HTRF)) is reported as 5 nM and the EC50 (TNFα; [1]) is reported as 188 nM.

In the case of CCNC(=O)C12CCC(Nc3cc(-c4ccc5cc(C#N)cnn45)ncc3C(=O)NC[C@@H](F)C(C)(C)O)(CC1)CC2 [Example 407, (R)-6-(3-cyanopyrrolo[1,2-b]pyridazin-7-yl)-4-((4-(ethyl-carbamoyl)bicyclo[2.2.2]octan-1-yl)amino)-N-(2-fluoro-3-hydroxy-3-methylbutyl)nicotinamide], the IC50 (IRAK4 enzyme; TR-FRET (HTRF)) is reported as 2 nM and the EC50 (TNFα; [1]) is reported as 20 nM.

For CN(C)C(=O)N[C@H]1CC[C@H](Nc2cc(-c3ccc4cc(C#N)cnn34)ncc2C(=O)NC[C@@H](F)C(C)(C)O)CC1 [Example 286, 6-(3-cyanopyrrolo[1,2-b]pyridazin-7-yl)-4-(((1r,4R)-4-(3,3-dimethylureido)cyclohexyl)amino)-N-((R)-2-fluoro-3-hydroxy-3-methylbutyl)nicotinamide], the IC50 (IRAK4 enzyme; TR-FRET) was 1 nM and the EC50 (TNFα; [1]) was 41 nM.

— patent US10336762B2 (priority 2017, dated 2019)
